Reference: patent US20090227587A1, “Pyrimidines as inhibitors of phosphoinositide-3-kinases (PI3K)” (Warner-Lambert Company LLC, priority 2003, published 2009)

Columns and labels:
[1] = molecular target: T1, p101/p110γ protein (PI3Kγ) (Homo sapiens, UniProt P48736); test: PI3Kγ in vitro kinase assay; assay type: biochemical; conditions: purified recombinant p101/p110γ with G protein β1/γ2 subunits, 20 μM ATP, PIP2 lipid micelles
T1 construct: HA; made in house; host or cells: Spodoptera frugiperda (Sf9) cells, baculovirus co-infection
T1 sequence (P48736 whole entry, species assumed): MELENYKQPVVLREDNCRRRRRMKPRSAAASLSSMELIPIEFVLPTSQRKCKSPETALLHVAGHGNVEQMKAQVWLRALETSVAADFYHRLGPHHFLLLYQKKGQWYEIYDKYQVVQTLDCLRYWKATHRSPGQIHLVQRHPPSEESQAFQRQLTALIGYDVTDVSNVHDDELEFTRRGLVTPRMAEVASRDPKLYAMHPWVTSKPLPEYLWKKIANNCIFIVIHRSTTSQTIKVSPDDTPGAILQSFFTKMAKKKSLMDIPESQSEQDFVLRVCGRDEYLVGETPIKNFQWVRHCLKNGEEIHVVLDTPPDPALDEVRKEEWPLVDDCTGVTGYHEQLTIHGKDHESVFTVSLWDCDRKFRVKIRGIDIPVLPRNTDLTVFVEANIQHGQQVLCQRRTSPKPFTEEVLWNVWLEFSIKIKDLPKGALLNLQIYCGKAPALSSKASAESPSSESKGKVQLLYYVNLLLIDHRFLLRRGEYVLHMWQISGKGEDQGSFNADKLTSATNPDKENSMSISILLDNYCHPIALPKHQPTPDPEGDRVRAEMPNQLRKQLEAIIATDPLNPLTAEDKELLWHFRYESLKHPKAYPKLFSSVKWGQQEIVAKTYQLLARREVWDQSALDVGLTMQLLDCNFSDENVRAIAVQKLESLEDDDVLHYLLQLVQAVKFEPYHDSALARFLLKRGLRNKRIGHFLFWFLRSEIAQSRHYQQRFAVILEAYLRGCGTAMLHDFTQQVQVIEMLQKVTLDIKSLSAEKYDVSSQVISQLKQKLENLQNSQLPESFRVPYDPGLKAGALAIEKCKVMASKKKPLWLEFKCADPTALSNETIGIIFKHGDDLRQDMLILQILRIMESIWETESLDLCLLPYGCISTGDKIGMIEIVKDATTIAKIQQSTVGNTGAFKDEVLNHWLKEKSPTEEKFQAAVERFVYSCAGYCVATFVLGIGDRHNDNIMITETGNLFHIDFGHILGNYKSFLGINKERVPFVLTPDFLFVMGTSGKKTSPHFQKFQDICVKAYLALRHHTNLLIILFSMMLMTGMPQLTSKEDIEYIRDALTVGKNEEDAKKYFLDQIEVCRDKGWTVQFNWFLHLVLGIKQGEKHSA
T1 sequence (Q8WYR1 whole entry partner, species assumed): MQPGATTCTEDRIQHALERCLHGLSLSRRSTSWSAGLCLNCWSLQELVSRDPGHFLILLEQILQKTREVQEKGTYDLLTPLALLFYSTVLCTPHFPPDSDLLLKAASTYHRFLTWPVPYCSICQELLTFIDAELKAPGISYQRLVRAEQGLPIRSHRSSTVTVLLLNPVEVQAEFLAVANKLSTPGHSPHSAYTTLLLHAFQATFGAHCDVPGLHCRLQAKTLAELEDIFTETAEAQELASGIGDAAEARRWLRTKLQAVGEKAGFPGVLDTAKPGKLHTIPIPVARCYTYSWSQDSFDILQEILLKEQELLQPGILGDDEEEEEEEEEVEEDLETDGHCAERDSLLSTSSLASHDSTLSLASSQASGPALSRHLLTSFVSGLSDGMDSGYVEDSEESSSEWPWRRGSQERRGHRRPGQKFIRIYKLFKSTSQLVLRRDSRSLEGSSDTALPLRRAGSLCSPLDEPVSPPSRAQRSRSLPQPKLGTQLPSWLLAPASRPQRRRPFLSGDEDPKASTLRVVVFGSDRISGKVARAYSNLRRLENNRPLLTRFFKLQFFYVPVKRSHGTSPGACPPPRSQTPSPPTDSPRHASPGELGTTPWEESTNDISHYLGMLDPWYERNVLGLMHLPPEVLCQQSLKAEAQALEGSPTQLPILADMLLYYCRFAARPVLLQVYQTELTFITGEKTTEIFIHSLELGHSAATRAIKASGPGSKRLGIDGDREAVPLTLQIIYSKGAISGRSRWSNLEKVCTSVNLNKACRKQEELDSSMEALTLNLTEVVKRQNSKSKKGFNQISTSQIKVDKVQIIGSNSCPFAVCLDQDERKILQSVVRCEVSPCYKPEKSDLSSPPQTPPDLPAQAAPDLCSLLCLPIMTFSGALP
Protocol: Spodtera frugiperda cells, grown in ESF921 media, were co-infected with baculovirus expressing a glu-tagged p101 and baculovirus expressing an HA-tagged p110γ, at a 3:1 ratio of p101 baculovirus to p110γ baculovirus. Sf9 cells were grown to 1×10^7 total cells/mL in 10 L bioreactors and harvested 48-72 hours post infection. Samples of infected cells were then tested for expression of p101/p110γ PI3 kinase by immunoprecipitation and Western Blot analysis methods (see below).
To purify PI3Kγ, 4 volumes of room temperature hypotonic lysis buffer (1 mM MgCl2, 1 mM DTT, 5 mM EGTA, 1 mM Pefabloc, 0.5 μM aprotinin, 5 μM leupeptin, 2 μM pepstatin, 5 μM E64, pH 8) per gram of cell paste, was poured onto frozen cell pellets with stirring, then lysed in a nitrogen “bomb” at 400 psi (599HC T316, Parr Instrument Co, Moline, Ill.). NaCl was added to 150 mM, and sodium cholate was added to 1% and mixed for another 45 minutes. The lysates were clarified by centrifugation for 25 minutes at 14,000 rpm. The lysates were then loaded over anti-glu-linked Protein-G Sepaharose beads (Covance Research Products, Richmond, Calif.) using 20 mL resin/50 g cell paste. The column was washed with 15 volumes of wash buffer (1 mM DTT, 0.2 mM EGTA, 1 mM Pefabloc, 0.5 μM aprotinin, 5 μM leupeptin, 2 μM pepstatin, 5 μM E64, 150 mM NaCl, 1% sodium cholate, pH 8). PI3Kγ was eluted with 6 column volumes of wash buffer that contain 100 μg/mL of a peptide that competes for binding of the glu tag. The column fractions with the eluted protein (determined by taking OD280 readings) were collected and dialyzed in 0.2 mM EGTA, 1 mM DTT, 1 mM Pefabloc, 5 μM leupeptin, 0.5% sodium cholate, 150 mM NaCl, and 50% glycerol, pH 8. The fractions were stored at −80° C. until further use.
Spodtera frugiperda cells were coinfected with baculovirus expressing a glu-tagged G protein β1 and baculovirus expressing a G protein […], at a 1:1 ratio of glu-tagged G protein […] baculovirus to G protein β2 baculovirus. Sf9 cells are grown in 10 L bioreactors and harvested 48-72 hours post infection. Samples of infected cells were tested for G protein β1/β2 expression by Western Blot analysis, as described below. Cell lysates were homogenized and loaded onto a column of glu-tagged beads as in Biological Example 1 and competed off the column with a glu peptide and processed as described in Biological Example 1.
The inhibitory properties of the compounds in Table 1 were assayed in an in vitro PI3K assay. In a 96-well polypropylene plate, each well was spotted with 2 μL of 50 times the desired final concentration of compound in DMSO. Purified recombinant p101/p110γ protein (0.03 μg; ˜2.7 nM) and G protein β1/γ2 subunits (0.09 μg; ˜57.7 nM) for each reaction was combined in the assay buffer (30 mM HEPES, 100 mM NaCl, 1 mM EGTA, and 1 mM DTT). ATP and [γ-^32P-ATP] (0.09 μCi) were added to this mixture so that the final ATP concentration in the reaction was 20 μM. Lipid micelles were formed by sonicating phosphatidylinositol-4,5-diphosphate (PIP2), phosphatidylethanolamine (PE), and Na-cholate in the assay buffer for 10 minutes, adding MgCl2 and incubating on ice for 20 minutes, for final concentrations of 25 μM PIP2, 300 μM PE, 0.02% Na-cholate, and 10 mM MgCl2 in the reaction. The reactions were started by adding equal volumes lipid and enzyme mixture in a total volume of 50 μL, allowed to run for 20 minutes at room temperature, and stopped with 100 μL 75 mM H3PO4. The lipid product was transferred to a glass fiber filter plate and washed with 75 mM H3PO4 several times. The presence of radioactive lipid product (PIP3) was measured by adding Wallac Optiphase mix to each well and counting in a Wallac 1450 Trilux plate reader (PerkinElmer Life Sciences Inc., Boston, Mass. 02118). The IC50 for each compound tested is reported in μM in the Tables above.

[2] = tested on: DBA/1 LacJ mice, collagen induced arthritis; test: Murine collagen induced arthritis; assay type: in vivo; conditions: 30 mg/kg q.d. oral gavage for two weeks beginning on day 27, female DBA/1 LacJ mice
Protocol: Bovine type II collagen (University of Utah) was diluted with 0.01N acetic acid to a concentration of 2 mg/mL and emulsified with an equal volume of Freund's complete adjuvant (Difco, Detroit, Mich.) supplemented with 1 mg/mL Mycobacterium tuberculosis Hra37. Age-matched (8-12 weeks) female DBA/1 LacJ mice (Jackson Laboratories, Bar Harbor, Me.) were immunized with 100 μL of emulsion (100 μg collagen) intradermally at the base of the tail. On Day 28 after immunization, the mice were given 50 μg Lipopolysaccharide (Sigma Aldrich, St Louis, Mo.) intraperitoneally (IP) in 100 μL saline. The compound of Example 1 (4-Cycloheptyloxy-2-morpholin-4-yl-pyrimidine-5-carboxylic acid (2H-tetrazol-5-yl)-amide) was dosed at 30 mg/kg q.d. by oral gavage for two weeks beginning on day 27. The development of arthritis was assessed on Days 27, 31, 34, 37, and 41. A clinical score was given to each limb using the following scale: (0) normal, (1) erythema and edema, (2) joint distortion, (3) joint ankylosis. Edema measurements on front paws, rear paws, and ankles were taken using constant tension calipers (Dyer, Lancaster, Pa.). The compound of Example 1 at 30 mg/kg q.d. inhibited paw edema in this model by 52%, and clinical score by 35%.

[3] = tested on: Lewis rats, streptococcal cell wall-induced paw edema; test: SCW streptococcal cell wall-induced paw edema; assay type: in vivo; conditions: 10, 30 and 100 mg/kg q.d. oral gavage for four days beginning on day 21, female Lewis rats
Protocol: Female Lewis rats (˜150 g) received 6 μg SCW in 10 μl Dulbecco's PBS by an intraarticular injection to the right tibiotalar joint on day 0. On day 21, the recurrence response was initiated with 100 μg SCW (250 μl, i.v.). Vehicle (0.5% hydroxypropylmethylcellulose/0.2% Tween 80) or the compound of Example 1 (4-Cycloheptyloxy-2-morpholin-4-yl-pyrimidine-5-carboxylic acid (2H-tetrazol-5-yl)-amide) was given orally (10 ml/kg volume), q.d., 1 hr prior to SCW, i.v., and on subsequent days. Baseline volumes of the sensitized hind paw were measured by a mercury displacement plethysmometer before disease initiation on day 21, and subtracted from subsequent assessments (made 24 hrs after each dose) to determine the Δ value (the difference between paw volume prior to disease initiation on day 21 and the paw volume 24 hours after each dose). The compound of Example 1 was dosed at 10, 30 and 100 mg/kg q.d. by oral gavage for four days beginning on day 21.

IC50 [1]: 197 nM
SMILES: O=C(Nc1nn[nH]n1)c1cnc(N2CCOCC2)nc1OC1CCCCCC1 [Example 1, 4-Cycloheptyloxy-2-morpholin-4-yl-pyrimidine-5-carboxylic acid (2H-tetrazol-5-yl)-amide]
inhibition of clinical score [2]: 35%
inhibition of paw edema [2]: 52%
ID50 for inhibition of paw edema [3]: 16.3 mg/kg
